Data on ten compounds can be found in patent publication US10000471B2, “Pyrazole P38 map kinase inhibitors” (Respivert Limited, priority 2010, dated 2018).

Bounds are passed on as bounds.

Data set [1] relates to TNFα release in d-U937 cells. Description: LPS-induced TNFα release in d-U937 cells. The data set is classed as cell-based, human. Particulars: Homo sapiens, dU937, relative to 10 μg/mL BIRB796, read-out: LPS/TNFα REC50 d-U937. In a few lines: (§1)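 PMA-differentiated (100 ng/ml, 48–72 hr) U937 macrophage-type cells pre-incubated 2 hr with compound, then stimulated 4 hr with 0.1 μg/mL E. coli O111:B4 LPS; supernatant TNFα and IL-8 measured by sandwich ELISA. TNFα inhibition expressed relative to 10 μg/mL BIRB796, giving REC50; IL-8 inhibition versus vehicle, giving IC50.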

The test system of data set [2] is ICAM-1 induction in BEAS2B cells. Description: Poly I:C-induced ICAM-1 induction in BEAS2B cells. The format is cell-based, human. Particulars: Homo sapiens, BEAS-2B, read-out: PolyIC/ICAM1 IC50 BEAS2B. In a few lines: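 Human bronchial epithelial BEAS2B cells were pre-incubated with compound for 2 hr, then transfected with 1 μg/mL poly I:C. After 18 hr, surface ICAM-1 was measured by cell-based ELISA (OD450-655) and normalized to crystal violet cell counts (OD595). IC50 came from inhibition versus vehicle across the concentration-response curve.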

In data set [3] the target is T1, p38 MAPKγ (MAPK12) (Homo sapiens, UniProt P53778).
T1 construct: purchased Invitrogen
T1 sequence (P53778 1-367): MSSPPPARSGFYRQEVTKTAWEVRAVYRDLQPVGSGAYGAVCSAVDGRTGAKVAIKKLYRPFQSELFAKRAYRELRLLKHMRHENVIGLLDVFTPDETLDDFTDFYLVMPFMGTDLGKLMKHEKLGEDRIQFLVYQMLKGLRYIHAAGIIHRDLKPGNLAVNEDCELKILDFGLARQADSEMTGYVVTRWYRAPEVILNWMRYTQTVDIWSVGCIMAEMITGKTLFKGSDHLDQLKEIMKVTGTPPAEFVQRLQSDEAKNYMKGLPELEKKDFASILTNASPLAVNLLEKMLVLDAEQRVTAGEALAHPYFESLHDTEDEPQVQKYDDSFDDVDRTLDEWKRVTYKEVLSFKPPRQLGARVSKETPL
The data set is described as follows: Enzyme inhibition assay (FRET, Z-LYTE), p38 MAPKγ. As to conditions: read-out: Enzyme Inhibition IC50 p38γ. The format is biochemical. In a few lines:
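Recombinant phosphorylated p38 MAPKγ preincubated 2 h at RT with compound in HEPES buffer, then 2 μM FRET peptide and 100 μM ATP added for 1 h; protease development 1 h. Coumarin/fluorescein emission ratio gave phosphorylation; IC50 from concentration-response versus uninhibited control.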

Data set [4] has as its system Differentiated U937 cells. The data set is described as follows: Cell viability MTT assay. The format is cell-based, human. Particulars: negative = apparent increase in viability; for MTT Assay (Viability) 4 h d-U937, percentage loss of cell viability: 4 hr in 5% FCS; for MTT Assay (Viability) 24 h d-U937, percentage loss of cell viability: 24 h in 10% FCS. Summed up:
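Differentiated U937 cells pre-incubated with compound either 4 hr in 5% FCS or 24 h in 10% FCS, then 1 hr MTT. Formazan dissolved in DMSO, absorbance at 550 nm. Percentage viability loss relative to 0.5% DMSO vehicle; apparent increases appear as negative percentages.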
In general terms: Tetrazolium assays rely on reduction of a dye to a coloured formazan, in cell work by metabolically active cells.

The test system of data set [5] is IL-8 release in d-U937 cells. The data set is described as follows: LPS-induced IL-8 release in d-U937 cells. The format is cell-based, human. As to conditions: Homo sapiens, dU937. Summed up: as §1
In data set [6] the target is T2, p38 MAPKα isoform (MAPK14) (Homo sapiens, UniProt Q16539).
T2 construct: purchased Invitrogen
T2 sequence (Q16539 whole entry, canonical isoform): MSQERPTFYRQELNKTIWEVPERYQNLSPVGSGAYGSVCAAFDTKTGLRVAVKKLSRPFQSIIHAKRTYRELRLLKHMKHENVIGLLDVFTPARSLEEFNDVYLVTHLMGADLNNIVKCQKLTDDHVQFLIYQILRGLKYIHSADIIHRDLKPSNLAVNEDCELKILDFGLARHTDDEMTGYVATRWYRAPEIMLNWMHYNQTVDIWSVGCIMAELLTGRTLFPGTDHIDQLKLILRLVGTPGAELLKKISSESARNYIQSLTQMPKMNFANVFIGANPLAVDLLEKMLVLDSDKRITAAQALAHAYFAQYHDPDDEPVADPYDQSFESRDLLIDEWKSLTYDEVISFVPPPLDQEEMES
Description: Enzyme inhibition assay (FRET, Z-LYTE), p38 MAPKα via MAPKAP-K2 activation. As to conditions: read-out: Enzyme Inhibition IC50 p38α. The data set is classed as biochemical. Summed up: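 Recombinant p38 MAPKα was preincubated with compound for 2 h at RT. Its activity was measured indirectly through activation/phosphorylation of downstream MAPKAP-K2, with a Z-LYTE FRET peptide read-out (coumarin/fluorescein ratio) after a 1 h development step. IC50 came from concentration-response curves of percent inhibition versus an uninhibited control.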

Data set [7] concerns TNFα release in THP-1 cells. Description: LPS-induced TNFα release in THP-1 cells. The data set is classed as cell-based, human. As to conditions: Homo sapiens. Summed up: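 Human monocytic THP-1 cells stimulated with 3 μg/mL E. coli LPS for 4 hr; supernatant TNFα measured by sandwich ELISA. Inhibition at each concentration versus vehicle control, IC50 from concentration-response curve.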

As for `CN(C)[C@H]1CCN(C(=O)Nc2cc(Oc3ccc(NC(=O)Nc4cc(C(C)(C)C)nn4-c4ccc(CO)cc4)c(Cl)c3Cl)ccn2)C1` [Example 83, (S)-N-(4-(4-(3-(3-tert-butyl-1-(4-hydroxymethylphenyl)-1H-pyrazol-5-yl)ureido)-2,3-dichlorophenoxy)pyridin-2-yl)-3-(dimethyl-amino)pyrrolidine-1-carboxamide], the EC50 in data set [1] came out at 1.7 nM. Also, the IC50 in data set [2] was 2.4 nM; in data set [3], 19.8 nM; in data set [5], 34 nM; in data set [6], 6.7 nM; in data set [7], 0.7 nM. The “MTT Assay (Viability) 4 h d-U937, percentage loss of cell viability” value in data set [4] is −9.9%. Also, in data set [4], the “MTT Assay (Viability) 24 h d-U937, percentage loss of cell viability” value stood at 34.3%.

For `COc1cc(-n2nc(C(C)(C)C)cc2NC(=O)Nc2ccc(Oc3ccnc(NC(=O)N4CC[C@H](N(C)C)C4)c3)c(Cl)c2Cl)ccc1CO` [Example 84, (S)-N-(4-(4-(3-(3-tert-butyl-1-(4-hydroxymethyl-3-methoxyphenyl)-1H-pyrazol-5-yl)ureido)-2,3-dichlorophenoxy)pyridin-2-yl)-3-(dimethylamino)pyrrolidine-1-carboxamide], the EC50 in data set [1] amounted to 1.4 nM. Also, the IC50 in data set [2] turned out to be 2.6 nM; in data set [3], 27 nM; in data set [5], 9.6 nM; in data set [6], 13.8 nM; in data set [7], 1.2 nM. In addition, the “MTT Assay (Viability) 4 h d-U937, percentage loss of cell viability” value in data set [4] was 3.2%. Further, the “MTT Assay (Viability) 24 h d-U937, percentage loss of cell viability” value in data set [4] worked out at 56.7%.

Take `COc1ccc(-n2nc(C(C)(C)C)cc2NC(=O)Nc2ccc(Oc3ccnc(NC(=O)N4CCC(O)C4)c3)c(Cl)c2Cl)cc1` (centres unmarked) [Example 85, N-(4-(4-(3-(3-tert-butyl-1-(4-methoxyphenyl)-1H-pyrazol-5-yl)ureido)-2,3-dichlorophenoxy)pyridin-2-yl)-3-hydroxypyrrolidine-1-carboxamide]: the EC50 in data set [1] stood at 1.1 nM. Moreover, the IC50 in data set [2] was 0.6 nM; in data set [3], 27.2 nM; in data set [5], 5.4 nM; in data set [6] it was 12.8 nM; in data set [7], 0.3 nM. The “MTT Assay (Viability) 4 h d-U937, percentage loss of cell viability” value in data set [4] is −25.1%. In addition, the “MTT Assay (Viability) 24 h d-U937, percentage loss of cell viability” value in data set [4] amounted to 58.6%.

Take `COc1ccc(-n2nc(C(C)(C)C)cc2NC(=O)Nc2ccc(Oc3ccnc(NC(=O)N4CCCC4(C)C)c3)c(Cl)c2Cl)cc1` [Example 86, N-(4-(4-(3-(3-tert-butyl-1-(4-methoxyphenyl)-1H-pyrazol-5-yl)ureido)-2,3-dichlorophenoxy)pyridin-2-yl)-2,2-dimethylpyrrolidine-1-carboxamide]: the EC50 in data set [1] came to 2.7 nM. Further, the IC50 amounted to 8 nM in data set [2]; 436 nM in data set [3]; 2.6 nM in data set [5]; 138 nM in data set [6]; 0.8 nM in data set [7]. The “MTT Assay (Viability) 4 h d-U937, percentage loss of cell viability” value in data set [4] is listed as −5.1%. In data set [4], the “MTT Assay (Viability) 24 h d-U937, percentage loss of cell viability” value worked out at 26.7%.

In the case of `COc1ccc(-n2nc(C(C)(C)C)cc2NC(=O)Nc2ccc(Oc3ccnc(NC(=O)N4CCC(N(C)C)CC4)c3)c(Cl)c2Cl)cc1` [Example 87, N-(4-(4-(3-(3-tert-butyl-1-(4-methoxyphenyl)-1H-pyrazol-5-yl)ureido)-2,3-dichlorophenoxy)pyridin-2-yl)-4-(dimethylamino)piperidine-1-carboxamide], the EC50 in data set [1] stood at 1.7 nM. Besides, the IC50 amounted to 1 nM in data set [2]; 16.9 nM in data set [3]; 2.1 nM in data set [5]; 14.5 nM in data set [6]; 1 nM in data set [7]. Further, in data set [4], the “MTT Assay (Viability) 4 h d-U937, percentage loss of cell viability” value is 7.1%. In data set [4], the “MTT Assay (Viability) 24 h d-U937, percentage loss of cell viability” value came to 39.3%.

As for `COCC(=O)Nc1cc(Oc2c(NC(=O)Nc3cc(C(C)(C)C)nn3-c3ccc(C)cc3)ccc(F)c2F)ccn1` [Example 88, N-(4-(6-(3-(3-tert-butyl-1-p-tolyl-1H-pyrazol-5-yl)ureido)-2,3-difluorophenoxy)pyridin-2-yl)-2-methoxyacetamide], the EC50 in data set [1] amounted to 27 nM. For the same compound, the IC50 in data set [2] is 1690 nM; in data set [3] it was over 17700 nM; in data set [5], over 1770 nM; in data set [6], 2090 nM; in data set [7], 989 nM. Besides, in data set [4], the “MTT Assay (Viability) 4 h d-U937, percentage loss of cell viability” value turned out to be 12.3%. In addition, the “MTT Assay (Viability) 24 h d-U937, percentage loss of cell viability” value in data set [4] is recorded as 10.0%.

For the compound `COCC(=O)Nc1cc(Oc2ccc(NC(=O)Nc3cc(C(C)(C)C)nn3-c3ccc(C)cc3)c(Cl)c2Cl)ncn1` [Example 89, N-(6-(4-(3-(3-tert-butyl-1-p-tolyl-1H-pyrazol-5-yl)ureido)-2,3-dichlorophenoxy)pyrimidin-4-yl)-2-methoxyacetamide], the EC50 in data set [1] amounted to 0.3 nM. Also, the IC50 in data set [2] was 1.8 nM; in data set [3], 175 nM; in data set [5] it was 13.4 nM; in data set [6], 58.8 nM; in data set [7], 1.7 nM. Also, the “MTT Assay (Viability) 4 h d-U937, percentage loss of cell viability” value in data set [4] is −49.9%. Further, in data set [4], the “MTT Assay (Viability) 24 h d-U937, percentage loss of cell viability” value is on record as −7.5%.

Regarding `COCC(=O)Nc1nccc(Oc2ccc(NC(=O)Nc3cc(C(C)(C)C)nn3-c3ccc(C)cc3)c(Cl)c2Cl)n1` [Example 90, N-(4-(4-(3-(3-tert-butyl-1-p-tolyl-1H-pyrazol-5-yl)ureido)-2,3-dichlorophenoxy)pyrimidin-2-yl)-2-methoxyacetamide], the EC50 in data set [1] is 1.3 nM. Besides, the IC50 in data set [2] was found to be 6.8 nM; in data set [3], 126 nM; in data set [5], 2.3 nM; in data set [6] it was 45.4 nM; in data set [7], 1.3 nM. For the same compound, the “MTT Assay (Viability) 4 h d-U937, percentage loss of cell viability” value in data set [4] is −26.8%. The “MTT Assay (Viability) 24 h d-U937, percentage loss of cell viability” value in data set [4] is −0.5%.

Take `COCC(=O)Nc1cc(Oc2ccc(NC(=O)Nc3cc(C(C)(C)C)nn3-c3cccc(CO)c3)c(Cl)c2Cl)ncn1` [Example 92, N-(6-(4-(3-(3-tert-butyl-1-(3-hydroxymethylphenyl)-1H-pyrazol-5-yl)ureido)-2,3-dichlorophenoxy)pyrimidin-4-yl)-2-methoxyacetamide]: in data set [1], the EC50 was found to be 0.9 nM. In addition, the IC50 in data set [2] was 1.9 nM; in data set [3], 165 nM; in data set [5], 9.9 nM; in data set [6], 25.8 nM; in data set [7] it was 14.2 nM. The “MTT Assay (Viability) 4 h d-U937, percentage loss of cell viability” value in data set [4] is −14.4%. Besides, the “MTT Assay (Viability) 24 h d-U937, percentage loss of cell viability” value in data set [4] is reported as 81.0%.

On to `COCC(=O)Nc1cc(Oc2ccc(NC(=O)Nc3cc(C(C)(C)C)nn3-c3ccc(CO)cc3)c(Cl)c2Cl)ncn1` [Example 93, N-(6-(4-(3-(3-tert-butyl-1-(4-hydroxymethylphenyl)-1H-pyrazol-5-yl)ureido)-2,3-dichlorophenoxy)pyrimidin-4-yl)-2-methoxyacetamide], for which the EC50 in data set [1] was 1.3 nM. Moreover, the IC50 worked out at 0.5 nM in data set [2]; 160 nM in data set [3]; 19.2 nM in data set [5]; 8.9 nM in data set [6]; 0.8 nM in data set [7]. In addition, the “MTT Assay (Viability) 4 h d-U937, percentage loss of cell viability” value in data set [4] is given as −1.4%. The “MTT Assay (Viability) 24 h d-U937, percentage loss of cell viability” value in data set [4] was determined as 91.5%.
